Measured values from paper PMC5322338 (Scientific Reports, 2017).

Assays:
[1] = tested on: Human neutrophil elastase (HNE); experiment: neutrophil elastase in 0.1 M HEPES and 0.5 M NaCl at pH 7.5; conditions: 37 °C, up to 30 min
[2] = Fluorescence quantum yield; conditions: quenched substrates versus free fluorophores
Text: We determined the absorption spectrum of the DNP group and the emission spectrum of the ACC fluorophore in four different assay buffers. […] To determine whether this spectral overlap is sufficient for ACC fluorophore quenching, we synthesized ACC-GDEVD-OH, a caspase substrate cleavage product, and compared its fluorescence with that of the full-length substrate ACC-GDEVD*GVK(DNP)D at various concentrations (Fig. 3).

legumain = legumain in 40 mM citric acid, 1 mM EDTA, 120 mM Na2HPO4, 10 mM DTT, pH 5.8; conditions: human, 37 °C, up to 30 min
caspase-7 [3] = experiment: caspase-7 in caspase buffer, IQF library screening and kinetics; conditions: human, 37 °C, up to 30 min
caspase-3 [4] = experiment: caspase-3 in caspase buffer, IQF library screening and kinetics; conditions: human, 37 °C, up to 30 min
caspase-6 = caspase-6 in caspase buffer, IQF library screening; conditions: human, 37 °C, up to 30 min
Trypsin = experiment: trypsin in 0.05 M Tris, 0.15 M NaCl, 0.01% Triton X100, pH 7.6; conditions: 37 °C, up to 30 min
MMP9 = MMP9 in 0.1 M Tris-HCl, 0.1 M NaCl, 10 mM CaCl2, pH 7.5; conditions: 37 °C, up to 30 min
MMP2 = MMP2 in 0.1 M Tris-HCl, 0.1 M NaCl, 10 mM CaCl2, pH 7.5; conditions: 37 °C, up to 30 min
caspase-7 [5] = experiment: caspase-7 in 20 mM Pipes, 0.1 M NaCl, 1 mM EDTA, 10 mM DTT, 10% (w/v) sucrose, pH 7.2 to 7.4; conditions: human, 37 °C, up to 30 min
caspase-8 = caspase-8 in caspase buffer supplemented with 1 M sodium citrate; conditions: human, 37 °C, up to 30 min
caspase-3 [6] = experiment: caspase-3 in 20 mM Pipes, 0.1 M NaCl, 1 mM EDTA, 10 mM DTT, 10% (w/v) sucrose, pH 7.2 to 7.4; conditions: human, 37 °C, up to 30 min

ACC-GAEPV*SLK(dnp)L-NH2
cleaved bond [1]: V-S

NC(=O)Cc1cc(=O)oc2cc(N)ccc12 [ACC, 7-amino-4-carbamoylmethylcoumarin]
fluorescence quantum yield (ϕF) [2]: 0.861

MCA-GPTN*KVK(dnp)R-NH2
cleaved bond (legumain): N-K

ACC-GPTN*KVK(dnp)R-NH2
cleaved bond (legumain): N-K

MCA-GAEPV*SLK(dnp)L-NH2
cleaved bond [1]: V-S

ACC-GDEVE/XKK(dnp)G-NH2 [DEVE/A]
cleaved bond (caspase-7 [3]): E-A | cleaved bond (caspase-3 [4]): E-A | cleaved bond (caspase-6): E-Ala

COc1ccc2c(CC(=O)O)cc(=O)oc2c1 [MCA, 7-methoxy-coumarin-4-yl acetic acid]
fluorescence quantum yield (ϕF) [2]: 0.718

ACC-GGLS(P1)*IVK(DNP)G-NH2
not cleaved (Trypsin): No measurable hydrolysis

ACC-GPLG*LK(dnp)AR-NH2
cleaved bond (MMP9): G-L | cleaved bond (MMP2): G-L

ACC-GGLS(P1)*IVK(DNP)G-NH2 [ACC-GGLS(P1)*IVK(DNP)G-NH2, P1 = Ornithine]
cleaved bond (Trypsin): Ornithine-I

MCA-GPLG*LK(dnp)AR-NH2
cleaved bond (MMP9): G-L | cleaved bond (MMP2): G-L

ACC-GDEVE/XKK(dnp)G-NH2 [DEVE/G]
cleaved bond (caspase-7 [3]): E-G | cleaved bond (caspase-3 [4]): E-G | cleaved bond (caspase-6): E-Gly

MCA-GDEVD*GVK(dnp)D-NH2
cleaved bond (caspase-7 [5]): D-G | cleaved bond (caspase-8): D-G | cleaved bond (caspase-3 [6]): D-G

ACC-GDEVD*GVK(dnp)D-NH2
cleaved bond (caspase-7 [5]): D-G | cleaved bond (caspase-8): D-G | cleaved bond (caspase-3 [6]): D-G
